We go through three molecules from publication PMC3118832 (Clinical Therapeutics, 2011).

The structures appear in SMILES notation. Read-outs that look alike come from different tables or passages of the source.

By CL/F is commonly meant clearance divided by bioavailability, as obtained after extravascular dosing. By Vd is commonly meant a proportionality between amount in the body and measured concentration, not a real space. The term Vd/F denotes the volume of distribution divided by bioavailability. By half-life is commonly meant the time in which the quantity being followed falls by half. Usually bioavailability stands for dose-corrected exposure relative to a reference, in per cent.

The conditions of data set [1]: cited from earlier work; for enzymatic autoinduction: administered continuously over several days; for CL/F / Vd/F / t1/2: healthy Vietnamese male volunteers, single oral administration, mean.
A short description of another data set: clinical. The note with it: human, in vivo. Here is the method: The study was conducted at HTD-HCMC. The clinical trial protocol was reviewed and supported by the internal Scientific and Ethical Committee of the HTD-HCMC and Oxford Tropical Research Ethics Committee (OxTREC 019-06), University of Oxford, Oxford, United Kingdom. The volunteers were randomly assigned to 1 of the 24 possible sequences for the 4 treatment groups (Table I). […] A fixed tablet combination of piperaquine and the reference Vietnamese formulation is not commercially available and could not be included in this trial.
Study drug was administered with 200 mL of drinking water after an overnight fast of >10 hours, according to US Food and Drug Administration (FDA) guidelines for bioequivalence studies.[30] The volunteers were asked to continue fasting for 2 hours after drug administration. Beverages containing caffeine or alcohol were not allowed on days of drug administration and blood sampling. […] Tolerability was assessed daily by the clinician during each study occasion (using an adverse-event report form) and at the follow-up visit 1 week after last study occasion (using an adverse-event report form and laboratory assessment). Adverse events were accessed by using an open question about potential health problems during the study and followed up with a questionnaire if any health problems had occurred since the last consultation.
An intravenous indwelling cannula was introduced and maintained in the antecubital vein and kept for 12 hours during blood sample collection at each study visit. A blood volume of 0.5 mL was discarded before sample collection to avoid drug dilution effects. A5-mL blood sample was drawn into lithium heparin tubes (Hong Thien My Medical Equipment Joint Stock Co., Ho Chi Minh City, Vietnam) before drug administration (predose) and at the following times after drug administration (postdose): 0.25, 0.5, 1, 1.5, 2, 2.5, 3, 4, 5, 6, 7, 8, 10, and 12 hours. The same time schedule was followed for all study visits. Saline solution (0.9% sodium chloride, 2 mL) was used to flush the lines after blood collection. Blood samples were immediately centrifuged at 3000g for 10 minutes at 20°C. Plasma were transferred to cryotubes within 10 minutes after centrifugation and stored directly at –70°C. All samples were freighted to Thailand on dry ice and analyzed by the Clinical Pharmacology Laboratory at Mahidol–Oxford Tropical Medicine Research Unit (Bangkok, Thailand).
The LC-MS/MS system consisted of an Agilent 1200 LC system including an autosampler set at 4°C and a column oven set at 40°C (Agilent Technologies Inc., Santa Clara, California) coupled with an API 5000 triple quadrupole mass spectrometer (Applied Biosystems/MDS SCIEX, Foster City, California). The lower limit of quantitation was set to 1.03 ng/mL, with a limit of detection of 0.257 ng/mL. […] Three independent quality-control samples in plasma (2.89, 40.7, and 571 ng/mL) were prepared fresh and analyzed in triplicate in each batch of extracted plasma samples. All samples were kept on ice until loaded onto the solid-phase extraction plate. The extracted samples were injected directly (5 μL) into the LC-MS/MS system.
AUC0–last values were calculated using the linear trapezoidal method for ascending concentrations and the logarithmic trapezoidal method for descending concentrations.[33] […] Cmax and Tmax concentrations were taken directly from the observed data. Vd/F and CL/F were computed individually according to standard procedures and summarized for each treatment group. […]

Data set [2] in a line: Tolerability: adverse-event reports and laboratory assessment at follow-up. Type of data set: in vivo, human. The protocol:
Fifteen healthy Vietnamese male volunteers aged 18 to 55 years were enrolled in the study. No female subjects were enrolled to avoid potential risks of adverse effects on the fetus during early pregnancy. The study design and potential adverse drug effects were explained to all volunteers in their own language before initiation of any study-related procedures. Volunteers who provided written informed consent were considered for enrollment. Clinical and laboratory screenings were performed at the Hospital for Tropical Diseases in Ho Chi Minh City (HTD-HCMC), Vietnam, and the results evaluated before enrollment. Clinical evaluation and laboratory assessment (full hematology and biochemistry) were also performed at follow-up 1 week after the last study visit.

The mark [3] stands for this setting: posttreatment (follow-up 1 week after last visit), mean (SD).

With `CO[C@H]1O[C@@H]2O[C@@]3(C)CC[C@H]4[C@H](C)CC[C@@H]([C@H]1C)[C@@]24OO3` [artemether], the enzymatic autoinduction result in data set [1] is reported as “marked ability for enzymatic autoinduction”.
As to `C[C@H]1[C@@H](O)O[C@@H]2O[C@@]3(C)CC[C@H]4[C@H](C)CC[C@@H]1[C@@]24OO3` [dihydroartemisinin], in data set [1], the enzymatic autoinduction result is on record as “not”.
On to `C[C@@H]1CC[C@H]2[C@@H](C)C(=O)O[C@@H]3O[C@@]4(C)CC[C@@H]1[C@]32OO4` [artemisinin], for which the “oral clearance in smokers compared with nonsmokers” value in “clinical” (po) is on record as “significantly higher”. For the same molecule, in “clinical” (male), the apparent clearance CL/F was 121 mL/min/kg, the Vd was found to be 1320 L, the Vd/F worked out at 22.8 L/kg and the half-life was 2.23 h. Also, in data set [1] (ref 31), the apparent clearance CL/F is 127 mL/min/kg, the Vd/F is 35.9 L/kg and the t1/2 is 2.10 h. Moreover, in data set [1] (ref 35), the CL/F is 85 mL/min/kg, the Vd/F was 19.4 L/kg and the t1/2 was 2.59 h. In data set [1] (ref 36), the CL/F was 89.7 mL/min/kg, the Vd/F was 16.4 L/kg and the t1/2 was 2.51 h. The bioavailability in data set [1] (in vivo) is given as under 30%. Also, the “tolerability / adverse events” value in data set [2] (15 healthy volunteers, single oral doses) is “no adverse events were reported”. Also, in data set [2] (levels still in the normal range), the “volunteers with higher aspartate aminotransferase at follow-up compared with baseline” value is listed as “Six of the 15”. The Urea in data set [2] (posttreatment (follow-up 1 week after last of 4 single-dose visits), mean (SD)) was 5.36 (1.5) [2.4–7.2] mM. Also, in data set [2] (setting [3]), the ALT was 44.7 (25) [15–120] U/L, the AST was 29.1 (16) [19–80] U/L, the Albumin is 39.7 (4.2) [30–46] g/L and the Basophils is 1.12 (0.49) [0.23–2.1] %. In addition, in data set [2] (setting [3]), the Eosinophils is 5.34 (3.2) [1.6–13] %, the Erythrocytes is 5.23 (0.49) [4.6–6.1] 10^12/L, the Ferritin was 117 (36) [69–190] μg/L and the Globulin was 37.7 (6.5) [30–47] g/L. Further, in data set [2] (setting [3]), the Glucose was 3.91 (0.35) [3.5–4.4] mM, the Hematocrit was 47.7 (2.5) [45–53] %, the Hemoglobin was 15.6 (0.78) [15–18] g/dL and the Leukocytes is 7.62 (1.5) [5.4–10] 10^9/L. Also, in data set [2] (setting [3]), the Lymphocytes is 32.5 (6.2) [21–43] %, the Magnesium is 0.896 (0.17) [0.70–1.1] mM, the Monocytes is 7.47 (1.4) [5.3–10] % and the Neutrophils is 53.7 (6.5) [45–63] %. In data set [2] (setting [3]), the Reticulocytes was 0.700 (0.34) [0.10–1.5] %, the Thrombocytes is 258 (59) [130–330] 10^9/L, the Total bilirubin was 16.1 (4.0) [9.0–20] μM and the Total protein is 77.3 (5.1) [67–82] g/L.
